According to PubChem BioAssay AID1963825 (Molecular Pharmacology Branch, DTP, NCI, 2024):

Experiment: Anticancer human tumor 997537-175-T-J1-PDC patient-derived colon adenocarcinoma cell line growth inhibition [POLQ]
Settings: 997537-175-T-J1-PDC complex spheroid viability, combination with POLQ inhibitors; for IC50: curve of first compound; for viability, T/C: stronger effect = lower value
Summary of the method: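 Growth inhibition in 3D: complex spheroids (tumor PDC, HUVEC, MSC) treated with POLQ inhibitor combinations; where Cmax unknown, highest tested concentration 10 microM, except SN-38 at 1 microM.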

[1] = second compound 0.0316 µM, first compound 0.0316 µM
[2] = second compound 0.0316 µM, first compound 0.1 µM
[3] = second compound 0.0316 µM, first compound 0.316 µM
[4] = second compound 0.0316 µM, first compound 1 µM
[5] = second compound 0.0316 µM, first compound 3.16 µM
[6] = second compound 0.0316 µM, first compound 10 µM
[7] = second compound 0.1 µM, first compound 0.0316 µM
[8] = second compound 0.1 µM, first compound 0.1 µM
[9] = second compound 0.1 µM, first compound 0.316 µM
[10] = second compound 0.1 µM, first compound 1 µM
[11] = second compound 0.1 µM, first compound 3.16 µM
[12] = second compound 0.1 µM, first compound 10 µM
[13] = second compound 0.316 µM, first compound 0.0316 µM
[14] = second compound 0.316 µM, first compound 0.1 µM
[15] = second compound 0.316 µM, first compound 0.316 µM
[16] = second compound 0.316 µM, first compound 1 µM
[17] = second compound 0.316 µM, first compound 3.16 µM
[18] = second compound 0.316 µM, first compound 10 µM
[19] = second compound 1 µM, first compound 0.0316 µM
[20] = second compound 1 µM, first compound 0.1 µM
[21] = second compound 1 µM, first compound 0.316 µM
[22] = second compound 1 µM, first compound 1 µM
[23] = second compound 1 µM, first compound 3.16 µM
[24] = second compound 1 µM, first compound 10 µM
[25] = second compound 3.16 µM, first compound 0.0316 µM
[26] = second compound 3.16 µM, first compound 0.1 µM
[27] = second compound 3.16 µM, first compound 0.316 µM
[28] = second compound 3.16 µM, first compound 1 µM
[29] = second compound 3.16 µM, first compound 3.16 µM
[30] = second compound 3.16 µM, first compound 10 µM
[31] = second compound 10 µM, first compound 0.0316 µM
[32] = second compound 10 µM, first compound 0.1 µM
[33] = second compound 10 µM, first compound 0.316 µM
[34] = second compound 10 µM, first compound 1 µM
[35] = second compound 10 µM, first compound 3.16 µM
[36] = second compound 10 µM, first compound 10 µM
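Further: luminescence signal used as a surrogate for viable cells; spheroids exposed to drugs for seven days before readout.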

COc1cc(C2c3cc4c(cc3C(OC3OC5COC(C)OC5C(O)C3O)C3COC(=O)C23)OCO4)cc(OC)c1O (centres undefined) + Cc1cccc(N(C)C(=O)C2C(O)CCN2c2nc(C)cc(C(F)(F)F)c2C#N)c1 gave an IC50 (second compound 0.0316 µM) greater than 10 µM, an IC50 (second compound 0.1 µM) greater than 10 µM and an IC50 (second compound 0.316 µM) greater than 10 µM. The IC50 (second compound 1 µM) was greater than 10 µM, the IC50 (second compound 3.16 µM) was greater than 10 µM and the IC50 (second compound 10 µM) was greater than 10 µM. The viability, T/C [1] was 100%, the viability, T/C [2] was 99.4% and the viability, T/C [3] was 95.5%. The viability, T/C [4] was 97.7%, the viability, T/C [5] was 75.2% and the viability, T/C [6] was 68.9%. For the same compound, the viability, T/C [7] was 96.3%, the viability, T/C [8] was 109% and the viability, T/C [9] was 94.6%. The viability, T/C [10] was 102%, the viability, T/C [11] was 75.1% and the viability, T/C [12] was 61.9%. For the same compound, the viability, T/C [13] was 99.8%, the viability, T/C [14] was 102% and the viability, T/C [15] was 96.3%. For the same compound, the viability, T/C [16] was 97.2%, the viability, T/C [17] was 85% and the viability, T/C [18] was 52.8%. For the same compound, the viability, T/C [19] was 103%, the viability, T/C [20] was 105% and the viability, T/C [21] was 104%. The viability, T/C [22] was 110%, the viability, T/C [23] was 82% and the viability, T/C [24] was 51.2%. The viability, T/C [25] was 89.5%, the viability, T/C [26] was 86.2% and the viability, T/C [27] was 102%. The viability, T/C [28] was 93.3%, the viability, T/C [29] was 77.3% and the viability, T/C [30] was 69.4%. For the same compound, the viability, T/C [31] was 112%, the viability, T/C [32] was 91.3% and the viability, T/C [33] was 106%. It also gave a viability, T/C [34] of 91.9%, a viability, T/C [35] of 76.3% and a viability, T/C [36] of 64.6%.

In the case of O=c1[nH]cc(F)c(=O)[nH]1 + Cc1cccc(N(C)C(=O)C2C(O)CCN2c2nc(C)cc(C(F)(F)F)c2C#N)c1, the IC50 (second compound 0.0316 µM) is reported as greater than 10 µM, the IC50 (second compound 0.1 µM) is reported as greater than 10 µM and the IC50 (second compound 0.316 µM) is reported as greater than 10 µM. For the same compound, the IC50 (second compound 1 µM) was greater than 10 µM, the IC50 (second compound 3.16 µM) was greater than 10 µM and the IC50 (second compound 10 µM) was greater than 10 µM. For the same compound, the viability, T/C [1] was 84.2%, the viability, T/C [2] was 109% and the viability, T/C [3] was 95.8%. The viability, T/C [4] was 96.7%, the viability, T/C [5] was 94.6% and the viability, T/C [6] was 79.7%. It also gave a viability, T/C [7] of 95.8%, a viability, T/C [8] of 87.7% and a viability, T/C [9] of 103%. For the same compound, the viability, T/C [10] was 108%, the viability, T/C [11] was 103% and the viability, T/C [12] was 98.4%. It also gave a viability, T/C [13] of 95%, a viability, T/C [14] of 96% and a viability, T/C [15] of 112%. The viability, T/C [16] was 98.4%, the viability, T/C [17] was 94.9% and the viability, T/C [18] was 83.3%. It also gave a viability, T/C [19] of 104%, a viability, T/C [20] of 82.8% and a viability, T/C [21] of 94.7%. The viability, T/C [22] was 87.5%, the viability, T/C [23] was 87.3% and the viability, T/C [24] was 91.5%. It also gave a viability, T/C [25] of 95%, a viability, T/C [26] of 99% and a viability, T/C [27] of 98.8%. For the same compound, the viability, T/C [28] was 87.8%, the viability, T/C [29] was 95.3% and the viability, T/C [30] was 79.6%. For the same compound, the viability, T/C [31] was 93.1%, the viability, T/C [32] was 96.4% and the viability, T/C [33] was 103%. For the same compound, the viability, T/C [34] was 95.1%, the viability, T/C [35] was 89.8% and the viability, T/C [36] was 71.8%.
